Molecular target: c-Met (Homo sapiens, UniProt P08581)
Experiment: Ki determination for the inhibition of c-Met kinase activity (standard coupled enzyme system)
Assay type: biochemical
Settings: coupled enzyme system, 200 μM ATP, 80 nM c-Met, 30° C.; number printed instead of class symbol; read-out: c-Met Ki
Method in brief: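 The kinase (80 nM) turned over polyGluTyr (10 μM) with ATP (200 μM, added to start), coupled to NADH oxidation via pyruvate kinase/lactate dehydrogenase at pH 7.5 HEPES, 1.5% DMSO.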

Sequence of c-Met (P08581 25-1390): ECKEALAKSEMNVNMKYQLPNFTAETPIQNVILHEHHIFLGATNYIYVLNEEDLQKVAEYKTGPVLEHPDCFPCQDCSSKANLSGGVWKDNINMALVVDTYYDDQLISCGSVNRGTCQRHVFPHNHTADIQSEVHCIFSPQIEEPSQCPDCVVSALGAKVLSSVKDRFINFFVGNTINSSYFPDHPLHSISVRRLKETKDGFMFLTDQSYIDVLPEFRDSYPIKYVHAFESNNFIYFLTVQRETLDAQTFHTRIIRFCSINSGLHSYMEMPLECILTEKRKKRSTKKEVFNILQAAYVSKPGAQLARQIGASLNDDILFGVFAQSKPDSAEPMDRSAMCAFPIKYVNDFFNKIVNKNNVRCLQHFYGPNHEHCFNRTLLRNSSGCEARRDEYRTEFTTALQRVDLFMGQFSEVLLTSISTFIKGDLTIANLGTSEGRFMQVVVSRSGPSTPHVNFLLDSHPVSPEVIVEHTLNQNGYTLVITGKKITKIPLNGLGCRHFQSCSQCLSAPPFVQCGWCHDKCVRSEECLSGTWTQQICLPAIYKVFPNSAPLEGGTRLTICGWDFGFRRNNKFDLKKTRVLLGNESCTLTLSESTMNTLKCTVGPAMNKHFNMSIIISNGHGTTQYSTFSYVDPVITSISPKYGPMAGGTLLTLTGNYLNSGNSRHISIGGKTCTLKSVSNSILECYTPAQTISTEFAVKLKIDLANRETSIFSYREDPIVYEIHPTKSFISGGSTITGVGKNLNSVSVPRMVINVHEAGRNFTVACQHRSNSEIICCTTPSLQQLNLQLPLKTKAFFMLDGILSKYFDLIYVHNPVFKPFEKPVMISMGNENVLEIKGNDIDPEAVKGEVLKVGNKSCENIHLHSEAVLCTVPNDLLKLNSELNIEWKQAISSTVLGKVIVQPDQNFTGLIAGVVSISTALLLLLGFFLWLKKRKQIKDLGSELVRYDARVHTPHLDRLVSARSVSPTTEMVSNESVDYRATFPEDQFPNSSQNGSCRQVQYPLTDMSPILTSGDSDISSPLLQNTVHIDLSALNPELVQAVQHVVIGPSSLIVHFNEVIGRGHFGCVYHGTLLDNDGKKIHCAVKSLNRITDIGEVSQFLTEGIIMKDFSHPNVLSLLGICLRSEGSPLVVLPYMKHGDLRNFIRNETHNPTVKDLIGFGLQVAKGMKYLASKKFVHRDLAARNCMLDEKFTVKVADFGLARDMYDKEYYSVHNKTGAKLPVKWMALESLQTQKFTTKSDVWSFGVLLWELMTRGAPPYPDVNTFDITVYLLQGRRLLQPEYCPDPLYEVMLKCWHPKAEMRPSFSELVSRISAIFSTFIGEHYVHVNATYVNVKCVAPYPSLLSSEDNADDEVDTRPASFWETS

Row | Ki | Compound
1 | 100 nM | COc1ccc(C2(c3nnc4ccc(Nc5cccc(Cl)c5)nn34)CC2)cc1 [Compound 356]

Same assay, conditions: coupled enzyme system, 200 μM ATP, 80 nM c-Met, 30° C.; read-out: c-Met Ki

Row | Compound | Ki
2 | COc1ccc(Cc2nnc3n2N=C(c2ccccc2)CS3)cc1 [Compound 530] | 100 to 2000 nM
3 | CC(O)c1cccc(Nc2ccc3nnc(Cc4ccc(O)c(Cl)c4)n3n2)c1 (centres unmarked) [Compound 299] | 100 to 2000 nM
4 | COc1ccc(Cl)cc1Nc1ccc2nnc(Cc3ccc(O)cc3)n2n1 [Compound 360] | < 100 nM
5 | CC1(C)CC(Nc2ccc3nnc(Cc4ccc(O)cc4)n3n2)CCO1 (centres unmarked) [Compound 302] | 100 to 2000 nM
6 | CCc1cccc(Nc2ccc3nnc(Cc4ccc(OC)cc4)n3n2)c1 [Compound 291] | 100 to 2000 nM
7 | COCCC(=O)N[C@H]1CCCC[C@H]1Nc1ccc2nnc([C@@H](C)c3ccc(O)cc3)n2n1 [Compound 447] | 100 to 2000 nM
8 | CN1C2CCC1CC(Nc1ccc3nnc(Cc4ccc(O)cc4)n3n1)C2 (centres unmarked) [Compound 417] | > 2000 nM
9 | Oc1ccc(Cc2nnc3ccc(NC4CC4)nn23)cc1 [Compound 329] | 100 to 2000 nM
10 | C[C@@H](c1ccc(O)cc1)c1nnc2ccc(Nc3nc4ccccc4s3)nn12 [Compound 499] | 100 to 2000 nM
11 | Oc1ccc(Cc2nnc3n2N=C(c2ccc4c(c2)OCO4)CS3)cc1 [Compound 540] | < 100 nM
12 | CCc1cccc(Nc2ccc3nnc(Cc4ccc(O)c(F)c4)n3n2)c1 [Compound 289] | 100 to 2000 nM
13 | Oc1ccc(C2(c3nnc4ccc(Nc5ccnc(Cl)c5)nn34)CC2)cc1 [Compound 520] | < 100 nM
14 | Clc1cccc(Nc2ccc3nnc(CNc4ccc5c(c4)OCCO5)n3n2)c1 [Compound 349] | > 2000 nM
15 | Cc1ccc(Cl)cc1Nc1ccc2nnc(Cc3ccc(O)cc3)n2n1 [Compound 358] | < 100 nM
16 | CC(C)C(=O)N1CCCC(Nc2ccc3nnc(Cc4ccc(O)cc4)n3n2)C1 (centres unmarked) [Compound 327] | > 2000 nM

More lines, now with the values ahead:

Row | Ki | Compound
17 | < 100 nM | CCc1cccc(Nc2ccc3nnc(Cc4ccc(O)cc4)n3n2)c1 [Compound 288]
18 | > 2000 nM | COc1ccc(Cc2nnc3ccc(Nc4cccc(Cl)c4)nn23)cc1C(N)=O [Compound 496]
19 | 100 to 2000 nM | Oc1cccc(Cc2nnc3ccc(Nc4cccc(Cl)c4)nn23)c1 [Compound 365]
20 | > 2000 nM | NC(=O)c1ccccc1OCc1nnc2ccc(Nc3cccc(Cl)c3)nn12 [Compound 392]
21 | > 2000 nM | Fc1ccc(NCc2nnc3ccc(Nc4cccc(Cl)c4)nn23)c(F)c1 [Compound 344]
22 | > 2000 nM | CC(=O)Nc1ccc(OCc2nnc3ccc(Nc4cccc(Cl)c4)nn23)cc1 [Compound 469]
23 | > 2000 nM | Nc1ccc(Cc2nnc3ccc(Nc4cccc(Cl)c4)nn23)cc1 [Compound 456]
24 | > 2000 nM | Fc1ccc(SCc2nnc3ccc(Nc4cccc(Cl)c4)nn23)c(F)c1 [Compound 405]
25 | > 2000 nM | Fc1ccc(SCc2nnc3ccc(Nc4cccc(Cl)c4)nn23)cc1 [Compound 390]
26 | 100 to 2000 nM | Nc1ncnc2c1ccn2Cc1nnc2ccc(Nc3cccc(Cl)c3)nn12 [Compound 452]
27 | > 2000 nM | Clc1cccc(Nc2ccc3nnc(CNc4ccc5[nH]ccc5c4)n3n2)c1 [Compound 465]
28 | > 2000 nM | Oc1c(Cc2nnc3ccc(Nc4cccc(Cl)c4)nn23)cnc2ncnn12 [Compound 516]
29 | 100 to 2000 nM | COc1ccc(NCc2nnc3ccc(Nc4cccc(Cl)c4)nn23)c(O)c1 [Compound 351]
30 | < 100 nM | Clc1cccc(Nc2ccc3nnc(Cn4ccc5ncccc54)n3n2)c1 [Compound 418]
31 | 100 to 2000 nM | Clc1cccc(Nc2ccc3nnc(CNc4ccc5c(c4)OCO5)n3n2)c1 [Compound 347]
32 | > 2000 nM | Nc1cc(C(F)(F)F)ccc1OCc1nnc2ccc(Nc3cccc(Cl)c3)nn12 [Compound 429]
33 | > 2000 nM | Oc1ccc2[nH]cc(Cc3nnc4ccc(Nc5cccc(Cl)c5)nn34)c2c1 [Compound 458]
34 | > 2000 nM | Oc1cccc(CCc2nnc3ccc(Nc4cccc(Cl)c4)nn23)c1 [Compound 441]
35 | < 100 nM | Clc1cccc(Nc2ccc3nnc(Cc4ccc5c(c4)CCO5)n3n2)c1 [Compound 355]
36 | > 2000 nM | COc1ccc(NCc2nnc3ccc(Nc4cccc(Cl)c4)nn23)cc1O [Compound 335]
37 | > 2000 nM | Clc1cccc(Nc2ccc3nnc(Cn4cnc5ccccc54)n3n2)c1 [Compound 485]
38 | 100 to 2000 nM | Oc1ccc(CCc2nnc3ccc(Nc4cccc(Cl)c4)nn23)cc1 [Compound 366]
39 | > 2000 nM | Clc1cccc(Nc2ccc3nnc(COc4cccc(Cl)c4)n3n2)c1 [Compound 384]
40 | 100 to 2000 nM | Fc1ccc(Cc2nnc3ccc(Nc4cccc(Cl)c4)nn23)c(Cl)c1 [Compound 314]
41 | > 2000 nM | N#Cc1ccc(OCc2nnc3ccc(Nc4cccc(Cl)c4)nn23)cc1 [Compound 379]
42 | > 2000 nM | CS(=O)(=O)c1ccc(Cc2nnc3ccc(Nc4cccc(Cl)c4)nn23)cc1 [Compound 364]
43 | > 2000 nM | Clc1cccc(Nc2ccc3nnc(CCc4c[nH]cn4)n3n2)c1 [Compound 395]

Same assay, conditions: coupled enzyme system, 200 μM ATP, 10 μM polyGluTyr, 80 nM c-Met, 30° C.; read-out: c-Met Ki

Row | Compound | Ki
44 | OCCCCNc1ccc2nnc(Cc3ccc(O)cc3)n2n1 [Compound 198] | 100 to 2000 nM
45 | Cc1ccc(Nc2nn3c(Cc4ccc(O)cc4)nnc3s2)cc1C [Compound 72] | 100 to 2000 nM
46 | Cc1cc(C)cc(Nc2ccc3nnc(Cc4ccncc4)n3n2)c1 [Compound 249] | > 2000 nM
47 | CC(c1ccc(O)cc1)c1nnc2sc(C(=O)NC3CC3)nn12 (centres unmarked) [Compound 90] | > 2000 nM
48 | N#Cc1cccc(Nc2ccc3nnc(Cc4ccc5c(c4)OCO5)n3n2)c1 [Compound 221] | < 100 nM
49 | O=c1ccn(Cc2nnc3ccc(-c4ccccc4)nn23)cc1 [Compound 218] | > 2000 nM
50 | CC(c1ccc(O)cc1)c1nnc2sc(Nc3cccc(Cl)c3F)nn12 (centres unmarked) [Compound 132] | < 100 nM
51 | COc1ccc(Nc2nn3c(Cc4ccc5c(c4)OCO5)nnc3s2)cc1 [Compound 65] | 100 to 2000 nM
52 | CCCC(C)Nc1ccc2nnc(Cc3ccc(O)cc3)n2n1 (centres unmarked) [Compound 280] | 100 to 2000 nM
53 | COC(=O)c1ccccc1Nc1nn2c(Cc3ccc(O)cc3)nnc2s1 [Compound 69] | > 2000 nM
54 | COc1cccc(Nc2nn3c(Cc4ccc5c(c4)OCO5)nnc3s2)c1 [Compound 34] | 100 to 2000 nM
55 | OC[C@H](Cc1ccccc1)Nc1ccc2nnc(Cc3ccc(O)cc3)n2n1 [Compound 191] | > 2000 nM
56 | CCN1CCCC1CNc1ccc2nnc(Cc3ccc(O)cc3)n2n1 (centres unmarked) [Compound 197] | > 2000 nM
57 | Oc1ccc(Cc2nnc3sc(Nc4ccccn4)nn23)cc1 [Compound 10] | > 2000 nM
58 | Oc1ccc(Cc2nnc3sc(Nc4cccc(F)c4F)nn23)cc1F [Compound 99] | 100 to 2000 nM
59 | CCC(C)Nc1ccc2nnc(Cc3ccc(O)cc3)n2n1 (centres unmarked) [Compound 278] | 100 to 2000 nM
60 | C[C@@H](c1ccc(O)cc1)c1nnc2sc(Nc3ccc(Cl)cc3)nn12 [Compound 117] | < 100 nM
61 | CC(C)[C@@H](N)C(=O)Oc1ccc([C@H](C)c2nnc3sc(Nc4cccc(F)c4)nn23)cc1 [Compound 165] | < 100 nM
62 | Oc1ccc(Cc2nnc3ccc(N[C@@H]4CCOC4)nn23)cc1 [Compound 274] | 100 to 2000 nM
63 | Oc1ccc(Cc2nnc3ccc(Nc4cccc(C(F)(F)F)c4)nn23)cc1 [Compound 223] | < 100 nM
64 | COc1ccc(Cc2nnc3ccc(Nc4cccc(C(F)(F)F)c4)nn23)cc1 [Compound 225] | 100 to 2000 nM

Row | Compound | Ki
65 | CC(c1ccc(O)cc1)c1nnc2sc(C(=O)N3CCCC3)nn12 (centres unmarked) [Compound 89] | > 2000 nM
66 | COc1ccc([C@H](C)c2nnc3sc(Nc4cccc(Cl)c4)nn23)cc1 [Compound 157] | 100 to 2000 nM
67 | CCc1cccc(Nc2ccc3nnc(Cc4ccncc4)n3n2)c1 [Compound 222] | > 2000 nM
68 | COc1ccccc1Nc1nn2c(Cc3ccc(O)cc3)nnc2s1 [Compound 29] | 100 to 2000 nM
69 | COc1ccc(Cc2nnc3ccc(Nc4cccc(F)c4)nn23)cc1 [Compound 285] | < 100 nM
70 | Oc1ccc(Cc2nnc3sc(Nc4ccc(-n5cccn5)cc4)nn23)cc1 [Compound 71] | < 100 nM
71 | c1cncc(Nc2nn3c(Cc4ccc5c(c4)OCO5)nnc3s2)c1 [Compound 84] | 100 to 2000 nM
72 | CC(O)c1cccc(Nc2ccc3nnc(Cc4ccc(O)cc4)n3n2)c1 (centres unmarked) [Compound 255] | < 100 nM
73 | CNc1nn2c(Cc3ccc(O)cc3)nnc2s1 [Compound 14] | 100 to 2000 nM
74 | CC(=O)Nc1cccc(NCc2nnc3ccc(-c4ccccc4)nn23)c1 [Compound 210] | > 2000 nM
75 | FC(F)(F)c1cccc(Nc2ccc3nnc(Cc4ccc5c(c4)OCO5)n3n2)c1 [Compound 226] | 100 to 2000 nM
76 | Nc1nn2c(Cc3ccc(OCc4ccccc4)cc3)nnc2s1 [Compound 1] | > 2000 nM
77 | CC(c1ccc(O)cc1)c1nnc2sc(Nc3cccc(Cl)c3)nn12 (centres unmarked) [Compound 63] | < 100 nM
78 | Oc1ccc(Cc2nnc3ccc(Nc4cc(Cl)cc(Cl)c4)nn23)cc1F [Compound 245] | < 100 nM
79 | Oc1cccc(CCc2nnc3sc(Nc4cccc(F)c4)nn23)c1 [Compound 95] | > 2000 nM
80 | Oc1ccc(Cc2nnc3ccc(NCCCn4ccnc4)nn23)cc1 [Compound 180] | 100 to 2000 nM
81 | Fc1cccc(Nc2ccc3nnc(Cc4ccncc4)n3n2)c1 [Compound 220] | 100 to 2000 nM
82 | Oc1ccc(CCc2nnc3sc(Nc4cccc(Cl)c4F)nn23)cc1 [Compound 102] | 100 to 2000 nM
83 | Oc1ccc(Cc2nnc3ccc(NCc4cccc(F)c4)nn23)cc1 [Compound 268] | 100 to 2000 nM
84 | CC(C)Nc1ccc2nnc(Cc3ccc(O)cc3)n2n1 [Compound 276] | 100 to 2000 nM

Now from value to compound:

Row | Ki | Compound
85 | 100 to 2000 nM | Cc1cccc(Nc2ccc3nnc(Cc4ccc(O)c(Cl)c4)n3n2)c1 [Compound 228]
86 | < 100 nM | COc1cccc(Nc2ccc3nnc(Cc4ccc(O)cc4)n3n2)c1 [Compound 184]
87 | < 100 nM | Oc1ccc(Cc2nnc3ccc(Nc4cccc(Cl)c4)nn23)cc1 [Compound 185]
88 | < 100 nM | Oc1ccc(Cc2nnc3ccc(Nc4cccc(F)c4)nn23)cc1Cl [Compound 219]
89 | < 100 nM | OCc1cccc(Nc2ccc3nnc(Cc4ccc(O)cc4)n3n2)c1 [Compound 259]

From patent publication US7998987B2, “Inhibitors of c-Met and uses thereof” (Vertex Pharmaceuticals Incorporated, priority 2005, dated 2011)
